Laboratory results: patent publication US5250542A, “Peripherally selective piperidine carboxylate opioid antagonists” (Eli Lilly and Company, priority 1992, dated 1993)
pKi: −log10 of the molar value. Where a name gives a salt, the structure may show the parent alone. Read-outs that look alike come from different tables or passages of the source.

Key:
[1] = target: T1, peripheral opioid receptors (Mus musculus, UniProt P42866); assay: precipitated diarrhea in morphine-maintained mice (peripheral opioid activity) and comparison with the writhing test; assay type: in vivo; conditions: for Ratio (AD50 mouse writhing test / ED50 mouse diarrhea test): higher ratio = greater relative antagonism of peripheral opioid receptors; for ED50: mouse, 0.5 h, morphine-maintained mice, antagonist subcutaneous or oral, 30 min observation
T1 construct: Mice maintained (6 mice/cage) on 0.01M saccharin water with 1 g/1 morphine sulfate; from tissue; host or cells: living morphine-maintained mice (in vivo test; endogenous receptor)
Protocol: Determinations of peripheral opioid activity were conducted. Mice maintained (6 mice/cage) on 0.01M saccharin water with 1 g/1 morphine sulfate for a minimum of 10 days with mice averaging 3.0^+ g water/mouse/day for at least three days are used as subjects. The morphine water was removed 45 min. prior to injection with the proposed opioid antagonist. Initial testing consisted of 5 mice/dose of compound. The antagonist was given by the subcutaneous or oral, route of administration,and the mice were placed in 11-14"×4 7/12 I.D. clear plastic cylinders with white paper towels used for a floor.
The mice were then monitored visually for 30 minutes post-injection for the presence of jumping and of diarrhea. Jumping was scored as positive if at least one jump occurred in 30 min. Diarrhea was scored as positive when feces were moist enough to stain the white paper at the base of the cylinder. After 30 minutes of testing, the mice were placed back in original cages, put back on morphine water, and not tested again for 48 hrs. Lower doses of the antagonist compounds were tested until threshold doses for diarrhea were determined. Diarrhea is a peripherally mediated sign of precipitated opiate abstinence.
The extent of the effect on peripheral activity compared to central activity of the present compounds can-be determined by comparing the AD50 for the mouse writhing test with the ED50 for the mouse diarrhea test. The higher the ratio, the greater the relative antagonism of the peripheral opioid receptors by a particular compound.

opioid receptor = target: T2, opioid receptor (Mus musculus, UniProt P42866); assay: mouse writhing analgesis test: block of morphine-induced analgesia; assay type: in vivo, CF-1 male mice; parameters: unit not given here; conditions: dose of antagonist that reduced the inhibition of writhing produced by 1.25 mg/kg morphine sulfate to 50%; subcutaneous, 20 min before acetic acid
T2 construct: Five CF-1 male mice (Charles River, Portage, Mich.); from tissue; host or cells: living CF-1 male mice (in vivo test; endogenous receptor)
Protocol: In order to determine in vivo opioid receptor antagonism, the mouse writhing analgesis test was used. Test compounds were measured for their ability to block morphine-induced analgesia.
Five CF-1 male mice (Charles River, Portage, Mich.), weighing approximately 20 g after being fasted overnight, were observed simultaneously for the writhing response. The writhing response was defined as a contraction of the abdominal musculature, followed by the extension of the hind limbs, and was induced by the intraperitoneal adminstration of 0.6% acetic acid in a volumne of 1 ml/100 g body weight. The observation period was 10 min. in duration, beginning 5 min. after injection of acetic acid. The percent inhibition of writhing was calculated from the average number of writhes in the control (non-drug) group. Each data point is the mean (±standarderror) for five mice. The ED50 was defined as the dose of agonist that inhibited mean writhing by 50%. […] Each mouse was only used once. All drugs were administered subcutaneously (1 ml/100 g bwt) 20 min. before the injection of acetic acid.

mu receptor = target: T3, mu receptor (Rattus norvegicus, UniProt P33535); assay: opioid receptor binding assay, [3H] NAL (tritiated naloxone), mu receptor; parameters: species or system rat (Male Sprague Dawley), brain minus cerebellum; conditions: for inhibition at 0.01 µM / inhibition at 0.1 µM: 20 min
T3 construct: rat whole brain minus cerebellum for mu was homogenized; from tissue; host or cells: brain of male Sprague Dawley rats, whole brain minus cerebellum, homogenate fraction
Protocol: This assay was conducted by the following procedure.
Male Sprague Dawley rats for mu site experiments were sacrificed via decapitation and the brains were removed. The brain tissue, rat whole brain minus cerebellum for mu was homogenized in a Teflon and glass tissue homogenizer. A supernatant I, pellet IV, fraction was frozen in a nitrogen freezer at 1.33 g/ml concentration and stored for not longer than five weeks prior to use. Pellets were rehydrated with physiological buffer prior to use.
The reaction was initiated by the addition of the resuspended tissue which had been preincubated at 37° C. for 20 minutes. The reaction mixture was incubated in a 37° C. water bath for 20 minutes. The reaction was terminated by rapid filtration, (Brandel Cell Harvestor), through Whatman GF/B glass filters that had been presoaked in Krebs-Hepes buffer pH 7.4. The filters were then washed 2x with 5 ml of ice cold Krebs-Hepes buffer pH 7.4. Washed filters were placed in scintillation vials and 10 ml RedySolv, (Brandel), was added and samples counted in a Searle D-300 beta counter. Means and standard error statistics were calculated for triplicate experimental determinations in certain cases. The incubation time for the reaction mixture was 20 minutes at 37° C.
Ki values were calculated using a minitab statistical program according to the following formula: [formula] wherein IC50 is the concentration at which 50% of the ^3 H ligand is displaced by the test compounds and KD is the dissociation constant for the ^3 H ligand at the receptor site. KD can be determined as described by Bennett, "Methods in Binding Studies", Neurotransmitter Receptor Binding, Yamamura, et al., ed., p. 57-90, Raven Press, N.Y. (1978) incorporated herein by reference.
In the Table, column 1 sets forth the Example Number of the compound evaluated, column 2 the Ki value in nanomolar (nM) at the mu receptor and columns 3 and 4 the percent displacement by the test compound at the indicated concentration, i.e., 10 nm or 100 nm.

[2] = read-out: % displacement at 10 nM, 10 nM test compound, [3H] naloxone 0.5 nM
[3] = read-out: % displacement at 100 nM, 100 nM test compound, [3H] naloxone 0.5 nM

T3 sequence (P33535 whole entry): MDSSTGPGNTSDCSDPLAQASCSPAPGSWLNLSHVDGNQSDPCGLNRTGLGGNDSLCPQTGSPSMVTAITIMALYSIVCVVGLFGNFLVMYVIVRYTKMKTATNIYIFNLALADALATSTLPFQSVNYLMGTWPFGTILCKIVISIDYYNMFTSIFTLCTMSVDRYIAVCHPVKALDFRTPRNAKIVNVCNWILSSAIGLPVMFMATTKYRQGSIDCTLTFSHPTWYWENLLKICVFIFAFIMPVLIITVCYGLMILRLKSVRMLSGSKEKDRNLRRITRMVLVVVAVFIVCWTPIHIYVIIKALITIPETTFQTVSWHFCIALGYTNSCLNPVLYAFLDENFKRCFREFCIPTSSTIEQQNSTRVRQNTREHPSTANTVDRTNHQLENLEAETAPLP
T1 sequence (P42866 whole entry): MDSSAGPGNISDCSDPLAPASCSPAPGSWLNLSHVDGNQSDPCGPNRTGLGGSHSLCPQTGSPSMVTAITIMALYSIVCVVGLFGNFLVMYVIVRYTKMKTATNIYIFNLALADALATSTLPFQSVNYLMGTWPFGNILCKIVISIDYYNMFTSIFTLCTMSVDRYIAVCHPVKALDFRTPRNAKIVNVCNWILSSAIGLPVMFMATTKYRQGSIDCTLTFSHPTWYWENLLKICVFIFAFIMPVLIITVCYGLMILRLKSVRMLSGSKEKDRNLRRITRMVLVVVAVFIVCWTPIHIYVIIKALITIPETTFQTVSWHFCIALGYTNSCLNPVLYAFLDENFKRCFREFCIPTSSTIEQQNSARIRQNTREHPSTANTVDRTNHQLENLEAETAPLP
T2 sequence (P42866 whole entry): as above

Row | Compound | Ratio (AD50 mouse writhing test / ED50 mouse diarrhea test) [1] | ED50 [1] [mg/kg] | AD50 (opioid receptor) | pKi (mu receptor) | inhibition at 0.01 µM (mu receptor; [2]) [%] | inhibition at 0.1 µM (mu receptor; [3]) [%] | inhibition at 0.1 µM (mu receptor; read-out: % displacement at 100 nM) [%] | inhibition at 0.01 µM (mu receptor; read-out: % displacement at 10 nM) [%]
1 | CCOC(=O)CNC(=O)C(CCN1CC[C@@](C)(c2cccc(O)c2)[C@@H](C)C1)c1ccccc1 (relative stereo) [Example 11, 2-[[4-4-(3-hydroxyphenyl)-3,4-dimethyl-1-piperidinyl]-1-oxo-2-phenylbutyl]amino]-acetic acid ethyl ester monohydrochloride] | 141 | 0.017 | 2.4 | 9.52 | 81 | 89 | – | –
2 | C[C@H]1CN(CCC(C(=O)NCC(=O)O)c2ccccc2)CC[C@@]1(C)c1cccc(O)c1 (relative stereo) [Example 12, 2-[[4-[4-(3-hydroxyphenyl)-3,4-dimethyl-1-piperidinyl]-2-phenyl-1-oxobutyl]amino]ethanoic acid monohydrate] | 2667 | 0.015 | 40 | 8.72 | 84 | – | 94 | –
3 | CCNC(=O)CNC(=O)C(CCN1CC[C@@](C)(c2cccc(O)c2)[C@@H](C)C1)c1ccccc1 (relative stereo) [Example 15, N-ethyl-2-[[4-[4-(3-hydroxyphenyl)-3,4-dimethyl-1-piperidinyl]]-2-phenyl-1-oxobutylamino]-acetamide monohydrochloride monohydrate] | > 133 | 0.3 | > 40 | 8.97 | 99 | 100 | – | –
4 | C[C@H]1CN(CCC(C(=O)NCCC(N)=O)C2CCCCC2)CC[C@@]1(C)c1cccc(O)c1 (relative stereo) [Example 17, monohydrochloride] | > 667 | 0.06 | > 40 | 9.37 | 97 | 100 | – | –
5 | CNC(=O)CCNC(=O)C(CCN1CC[C@@](C)(c2cccc(O)c2)[C@@H](C)C1)C1CCCCC1 (relative stereo) [Example 18, N-[3-(methylamino)-3-oxopropyl]-4-[4-(3-hydroxyphenyl)-3,4-dimethyl-1-piperidinyl]-2-cyclohexyl-butanamide monohydrochloride] | > 888 | 0.045 | > 40 | 9.37 | 97 | – | – | –
6 | C[C@H]1CN(CCC(C(=O)NCC(N)=O)C2CCCCC2)CC[C@@]1(C)c1cccc(O)c1 (relative stereo) [Example 20, N-(2-amino-2-oxoethyl)-4-[4-(3hydroxyphenyl)-3,4-dimethyl-1-piperidinyl]-2-cyclohexylbutanamide hydrochloride monohydrate] | 802 | 0.004 | 32.1 | 9.11 | 98 | 100 | – | –
7 | CNC(=O)CNC(=O)C(CCN1CC[C@@](C)(c2cccc(O)c2)[C@@H](C)C1)C1CCCCC1 (relative stereo) [Example 21, N-[2-(methylamino)-2-oxoethyl]-4-[4-(3-hydroxyphenyl)-3,4-dimethyl-1-piperidinyl]-2-cyclohexyl butanamide hydrochloride] | > 125 | 0.16 | > 20 | 9.35 | 96 | 100 | – | –
8 | CCNC(=O)CNC(=O)C(CCN1CC[C@@](C)(c2cccc(O)c2)[C@@H](C)C1)C1CCCCC1 (relative stereo) [Example 22, N-[2-(ethylamino)-2-oxoethyl]-4-[4-(3-hydroxyphenyl)-3,4-dimethyl-1-piperidinyl]-2-cyclohexyl butanamide hydrochloride] | > 500 | 0.08 | > 40 | 9.48 | 100 | 96 | – | –
9 | CCOC(=O)CCCNC(=O)C(CCN1CC[C@@](C)(c2cccc(O)c2)[C@@H](C)C1)C1CCCCC1 (relative stereo) [Example 23, 4-[2-cyclohexyl-4-[4-(3-hydroxyphenyl)-3,4-dimethyl-1-piperidinyl]-1-oxobutyl]amino]-butanoic acid ethyl ester monohydrochloride monohydrate] | > 140 | 0.14 | > 20 | 8.78 | 100 | 96 | – | –
10 | CNC(=O)CCCNC(=O)C(CCN1CC[C@@](C)(c2cccc(O)c2)[C@@H](C)C1)C1CCCCC1 (relative stereo) [Example 24, N-methyl-4-[[4-[4-(3-hydroxyphenyl)-3,4-dimethyl-1-piperidinyl]-2-cyclohexyl-1-oxobutyl]amino]butanamide monohydrochloride monohydrate] | > 400 | 0.1 | > 40 | 9.35 | 100 | 100 | – | –
11 | C[C@H]1CN(CCC(C(=O)NCCC(=O)OCc2ccccc2)C2CCCCC2)CC[C@@]1(C)c1cccc(O)c1 (relative stereo) [Example 25, 3-[[2-cyclohexyl-4-[4-(3-hydroxyphenyl)-3,4-dimethyl-1-piperidinyl]-1-oxobutyl]amino]propanoic acid phenylmethyl ester hydrochloride monohydrate] | 40 | 0.29 | 11.5 | 9.66 | 100 | 100 | – | –
12 | C[C@H]1CN(CCC(C(=O)NCCC(=O)O)C2CCCCC2)CC[C@@]1(C)c1cccc(O)c1 (relative stereo) [Example 26, 3-[4-[3,4-dimethyl-4-(-3-hydroxyphenyl)-1-piperidinyl]-2-cyclohexyl-1-oxobutylamino]-propanoic acid monohydrate] | 250 | 0.03 | 7.5 | 8.93 | 76 | 91 | – | –
13 | C[C@H]1CN(CCC(C(=O)NCC(=O)O)C2CCCCC2)CC[C@@]1(C)c1cccc(O)c1 (relative stereo) [Example 27, 2-[[2-cyclohexyl-4-[4-(3-hydroxyphenyl)-3,4-dimethyl-1-piperidinyl]-1-oxobutyl]amino]-acetic acid monohydrate] | 51 | 0.3 | 15.3 | 9.04 | – | 99 | – | 92
